Assay results reported in patent US11369654B2, “Application method of Dendrobium candidum in preparing medicine for treating hypertension” (Hangzhou Danhe Pharmaceutical CO., Ltd., priority 2017, dated 2022).
Several values for one entry are separate records, joined by “and”; a condition that tells them apart may be missing. Equal values may be shown once.

Assays:
[1] = tested on: Spontaneously Hypertensive Rats (SHR); experiment: Experiment 4: antihypertensive effect of the sample of Example 1 on SHR; assay type: in vivo, rat
Procedure: Rats: Spontaneously Hypertensive Rats (SHR), Wistar rats were used as normal controls.
(§1) Rat Blood Pressure Measurement: BP-98A Non-invasive Tail Artery Blood Pressure Meter, Japan Soft Rotation Co., Ltd.
Group therapy is described in the following description. Blood pressure and body weight are measured and grouped after one week of adaptive feeding in all rats. […] Eight rats in each group are treated for 2 weeks.
The following description describes the blood pressure measurement. The rats are preheated at 38° C. for 5-10 minutes to avoid blood flow in the tail of the rat. The blood pressure of the rats is measured three times in a waking and quiet state, and the average value of three times is used as the blood pressure of the rats. Blood pressure is measured twice a week, once 2 hours after administration and once 24 hours after administration, to observe the immediate antihypertensive effect and after 24 hours antihypertensive effect (and the peak-to-valley ratio).
The following description discusses the trough-peak ratio calculation of depressurization amplitude. The difference of blood pressure before treatment minus 24 hours after administration is the trough of the range of blood pressure reduction, which is the lowest point before the next administration; the difference of blood pressure before treatment and 2 hours after administration is the peak value of blood pressure reduction, that is, the maximum point of blood pressure reduction after administration. Valley value of depressurization amplitude divided by peak value of depressurization amplitude is equal to valley-peak ratio of depressurization amplitude.

[2] = tested on: Spontaneously Hypertensive Rats (SHR); experiment: Experiment 1: antihypertensive effect of Dendrobium officinale extraction methods, tail artery blood pressure; assay type: in vivo, rat
Procedure: Rats: Spontaneously Hypertensive Rats (SHR), Wistar rats are used as normal controls.
as §1
Group therapy is described in the following description. Blood pressure and body weight are measured and grouped after one week of adaptive feeding in all rats. The SHR rats are divided into the water extracting group after crushing and flattening, the water extracting group after crushing, and the water extracting group after grinding into powder, all Chinese medicine groups are given 0.8 g/kg body weight of crude drug, and the amlodipine besylate tablets 0.5 mg/kg body weight are given intragastrically in amlodipine group, the hypertensive model control group is given with the same amount of saline, while the normal control group is given with the same amount of saline. Eight rats in each group were treated for 2 weeks. Blood pressure measurement: The rats are preheated at 38° C. for 5-10 minutes to avoid blood flow in the tail of the rat. The blood pressure of the rats is measured three times in a waking and quiet state, and the average value of the three measurement times is used as the blood pressure of the rats. Blood pressure is measured once a week and once 2 hours after administration.

[3] = 2 h after administration, treatment for 1 week, medium dose 0.8 g/kg crude drug, amlodipine 0.5 mg/kg
[4] = 2 h after administration, treatment for 2 weeks, medium dose 0.8 g/kg crude drug, amlodipine 0.5 mg/kg
[5] = 24 h after administration, treatment for 1 week, medium dose 0.8 g/kg crude drug, amlodipine 0.5 mg/kg
[6] = 24 h after administration, treatment for 2 weeks, medium dose 0.8 g/kg crude drug, amlodipine 0.5 mg/kg
[7] = before treatment, medium dose group 0.8 g/kg crude drug, amlodipine group 0.5 mg/kg
[8] = treatment for 1 week, medium dose 0.8 g/kg crude drug, amlodipine 0.5 mg/kg
[9] = treatment for 2 weeks, medium dose 0.8 g/kg crude drug, amlodipine 0.5 mg/kg
[10] = 2 h after administration, treatment for 1 week, 0.8 g/kg crude drug, amlodipine 0.5 mg/kg
[11] = 2 h after administration, treatment for 2 weeks, 0.8 g/kg crude drug, amlodipine 0.5 mg/kg
[12] = 2 h after administration, treatment for 2 weeks, 0.8 g/kg crude drug, amlodipine 0.5 mg/kg, listed as amlodipine

`CCOC(=O)C1=C(COCCN)NC(C)=C(C(=O)OC)C1c1ccccc1Cl` (stereo not drawn) [Amlodipine, amlodipine besylate] gave a diastolic blood pressure [1, 3] of 145.9 mmHg, a systolic blood pressure [1, 3] of 176.7 ± 7.42 mmHg and a diastolic blood pressure [1, 4] of 144.8 mmHg. The systolic blood pressure [1, 4] was 178.7 ± 5.64 mmHg, the diastolic blood pressure [1, 5] was 156.5 mmHg and the systolic blood pressure [1, 5] was 202.6 mmHg. The diastolic blood pressure [1, 6] was 157.3 mmHg, the systolic blood pressure [1, 6] was 204.9 mmHg and the diastolic blood pressure [1, 7] was 158.2 mmHg. For the same compound, the systolic blood pressure [1, 7] was 211.7 ± 7.57 mmHg and 211.7 mmHg and 211.7 ± 17.57 mmHg, the “2-hour hypotensive amplitude (peak of systolic blood pressure reduction)” value [1, 8] was 35.0 mmHg and the “24-hour hypotensive amplitude (trough of systolic blood pressure reduction)” value [1, 8] was 9.1 mmHg. For the same compound, the “valley-peak ratio of Systolic Blood Pressure Reduction” value [1, 8] was 0.26, the “2-hour hypotensive amplitude (peak of systolic blood pressure reduction)” value [1, 9] was 33.0 mmHg and the “24-hour hypotensive amplitude (trough of systolic blood pressure reduction)” value [1, 9] was 6.8 mmHg. For the same compound, the “valley-peak ratio of Systolic Blood Pressure Reduction” value [1, 9] was 0.21, the diastolic blood pressure [2, 10] was 142.6 ± 5.78 mmHg and the systolic blood pressure [2, 10] was 173.8 ± 5.26 mmHg. The diastolic blood pressure [2, 11] was 143.7 ± 4.28 mmHg, the systolic blood pressure [2, 11] was 175.5 ± 4.48 mmHg and the diastolic blood pressure [2, 12] was 143.7±4.28 mmHg. For the same compound, the systolic blood pressure [2, 12] was 175.5±4.48 mmHg, the diastolic blood pressure ([2]; before treatment) was 157.4 ± 5.67 mmHg and the systolic blood pressure ([2]; before treatment) was 206.3 ± 6.26 mmHg.
